Measured values from patent US12085575B2, “Compositions and methods for detecting proteinopathies” (BOARD OF SUPERVISORS OF LOUISIANA STATE UNIVERSITY AND …, priority 2011, dated 2024).

What was measured:
Format in all cases: cell-based, human
[1] = system: HA-polyubiquitylated proteins; assay: UV-induced degradation of HA-polyubiquitylated proteins (anti-HA Western blot); conditions: MG132 1 nm or 3-MA 10 nm for 18 h, UV 25 mJ/m2
Experimental: Immunoblotting Analysis of HA-ubiquitin conjugated proteins in cells exposed to UV radiation. Cells ([…]) were transfected with a hemagglutinin (HA)-ubiquitin plasmid using the PolyFect transfection reagent (Qiagen; Valencia, CA) as described (24). Twenty-four h after transfection, cells were treated with either proteasome inhibitor MG132 (1 μM) (Boston Biochemicals; Cambridge, MA) or autophagy inhibitor Bafilomycin A1 (Bafl) (1 nM) (Sigma-Aldrich) or 3-Methyladenine (3-MA) (100 nM) for 18 h. Cells were exposed to UV radiation (25 mJoules, using BioRad GS Gene Linker™ UV Chamber) and/or left untreated. Cells were then allowed to recover in the presence of inhibitors for 3 hr. Cell lysis, SDS-PAGE, and immunoblotting analysis to detect HA-ubiquitin conjugated proteins using anti-HA antibodies was carried out as described herein.
Decrease in the steady state levels of polyubiquitylated proteins could be due to their increased deubiquitylation or increased degradation via the 26S proteasome. Also, the ubiquitin antibody used in the experiment herein is known to cross-react with free ISG15/UCRP (44), and ISG15 protein is elevated in A-T cells (20). An HA-ubiquitin construct was transfected and then the steady state levels of the HA-polyubiquitylated proteins was assessed (to rule out the possibility of protein polyubiquitylation versus protein polyISGlyation), in the absence or presence of the proteasome inhibitor MG132 (to rule out the possibility of protein deubiquitylation versus protein degradation), in UV treated A-T and ATM+ cells. In FIG. 8B, A-T and ATM+ cells were transfected with a HA-ubiquitin construct. Cells were then treated with MG132 (1 μM) or Bafl (1 nM) for 18 hours and exposed to UV radiation (25 mJ/m2). After recovery in the presence of inhibitors for an additional three hours, cells were lysed. Cell extracts were analyzed by Western blotting for HA-polyubiquitylated proteins and actin using anti-HA and anti-actin antibodies respectively. Intensity of the total HA-polyubiquitylated proteins was quantitated using BioRad Quantity One software and results shown in FIG. 8C.
To complement the results shown in FIG. 8B, another construct was used that expresses HA-ubiquitin and that can preferentially make polyubiquitin chains linked through Lys48 on the substrates (20). In FIG. 8D, A-T and ATM+ cells were transfected with HA-Lys48 only ubiquitin construct. The inhibitor and UV treatments, cell lysis, SDS-PAGE, and immunoblotting analysis to detect HA-ubiquitin conjugated proteins using anti-HA antibodies was carried out as described herein. The experiment was repeated two times with the reproducible results. Similar results were obtained using this distinct HA-ubiquitin construct (FIG. 8D) as obtained herein (FIG. 8B); UV induced MG132- and Bafilomycin-resistant degradation of HA-Lys48-linked polyubiquitylated proteins in A-T cells, but not in ATM+ cells.
For FIG. 14A, HA-ubiquitin-transfected A-T/LV-control shRNA cells were exposed to UV (25 mJ/m2). After three hours of recovery, assessment of HA-polyubiquitylated proteins was carried out as described herein for FIG. 8B. In FIG. 14B, HA-ubiquitin-transfected A-T/LV-control shRNA cells were treated with Bafl (1 nm for 18 h). Cells were then exposed to UV (25 mJ/m2). After three hours of recovery in the presence of the inhibitor, assessment of HA-polyubiquitylated proteins was carried out as described for FIG. 14A. For FIG. 14C, HA-ubiquitin-transfected A-T/LV-control shRNA cells were treated with MG132 (1 nm for 18 h). Cells were then exposed to UV (25 mJ/m2). After three hours of recovery in the presence of the inhibitor, assessment of HA-polyubiquitylated proteins was carried out as described for FIG. 14A. For FIG. 14D, HA-ubiquitin-transfected A-T/LV-control shRNA cells were treated with 3-MA (10 nm for 18 h). Cells were then exposed to UV (25 mJ/m2). […]

[2] = system: autophagosomes and autophagolysosomes; assay: Cyt-ID and LysoTracker Red staining of autophagosomes, lysosomes and autophagolysosomes
Experimental: Autophagasome, lysosome and autophagolysosomes staining. Cells (100,000/point) were cultured on fibronectin-coated glass coverslips. Cells were treated with autophagy inhibitor Bafl (1 nM) (Sigma-Aldrich) for 18 hr. Cells were then exposed to UV radiation and allowed to recover in the presence of inhibitors for 3 h. Cells were then washed (2×1 min) with PBS and co-stained with Cyt-ID® (Cyt-ID® Autophagy Detection Kit from Enzo Lifesciences; Farmingdale, NY) and Lyso Tracker® Red DND-99 (Invitrogen) for 30 min at 37° C. in a CO2 incubator following manufacturer's protocol. Stained cells were then washed (2×1 min) with PBS and fixed with 4% paraformaldehyde for 20 min at room temperature. After washing with PBS (3×10 min), cells were mounted on slides in anti-fade mounting medium with DAPI (Invitrogen). Images were taken using a 63× oil immersion objective with a Leica DMRA2 upright microscope run through SlideBook software (Intelligent Imaging Innovations).
Autophagic flux was also monitored using Cyto-ID® and LysoTrack Red dyes. A-T and ATM+ cells were treated with Bafl (1 nM for 18 h) and then exposed to UV (25 mJ/m2) as indicated. Three hours after recovery in the presence of inhibitors, cells were co-stained with Cyt-ID® and LysoTracker Red® dyes. Fluorescence images of Cyt-ID® and LysoTracker Red® stained cells were made (Color images not shown). Green (autophagosomes; from Cyt-TD®-stained panels), red (lysosomes; from LysoTracker Red-stained panels), and yellow (autophagolysosomes; from merged panels) dots in A-T and ATM+ cells were counted manually using the ImageJ plug-in Cell Counter. Mean number of dots/cell is shown in FIGS. 11A and 11B, respectively. In FIGS. 11A and 11B, the number of autophagosomes (green dots) is represented by stippled bars; the number of lysosomes (red dots) is presented by lined bar; and the number of autophagolysosomes (yellow dots) is represented by clear (white) bars.
Bafilomycin inhibits autophagy at a late stage (47). Whether 3-methyl adenine (3-MA), an autophagy inhibitor known to inhibit autophagy at early stage by inhibiting formation of autophagosomes (56), could block UV-induced autophagic flux was tested in A-T/LV-control shRNA cells. Using Cyto-ID® and LysoTrack Red dyes as described herein in FIGS. 9A, 9B, 11A and 11B, the same criteria were used to judge autophagic activity in immunofluorescence analysis as described for FIGS. 11A and 11B.
The effect of 3-MA on UV-induced autophagic flux was tested in A-T/LV-ISG15 shRNA cells. A-T/LV-ISG15 shRNA cells were either left untreated or treated with 3-MA (10 nM for 18 h), and cells were then exposed to UV (25 mJ/m2). Three hours after recovery in the presence of the inhibitor, cells were co-stained with Cyt-ID® and LysoTracker Red® dyes. Fluorescence images of Cyt-ID® and LysoTracker Red® stained cells were made.

[3] = system: polyubiquitylated proteins; assay: CHX chase of polyubiquitylated proteins in FT169A cells; conditions: FT169A (ATM+) cells
Experimental: To test whether the defective ubiquitin-mediated degradation of cellular proteins contributes to neurodegeneration in A-T, the rate of degradation of overall cellular polyubiquitylated proteins was monitored in FT169A (A-T) (ATM null) and FT169A (ATM+) (ATM reconstituted FT169A) isogenic cells as described (71) using the protein synthesis inhibitor cycloheximide (CHX) (Sigma-Aldrich). In FIG. 1A, FT169A (A-T) (lanes 1-4) and FT169A (ATM+) (lanes 5-8) cells were treated with the protein synthesis inhibitor CHX (10 μg/ml) for 0, 1, 3, and 6 hours. Cell lysates were analyzed using discontinuous (15%) SDS-PAGE followed by immunoblotting with anti-ubiquitin antibody. The symbols * and ** mark the position of high-molecular-weight (HMW) polyubiquitylated proteins. Quantitation of the high-molecular-weight (HMW) polyubiquitylated proteins (shown as **) is shown in the bar graph.
The ubiquitin sequence contains seven lysine residues (at positions 6, 11, 27, 29, 33, 48, and 63) and polyubiquitin chain assembly can occur at any of these lysine residues (74). Lys48-linked polyubiquitylated proteins are targeted for destruction via the 26S proteasome (74). […] The amount of polyubiquitylated proteins and the rate of turnover of polyubiquitylated proteins (see the HMW protein species marked by *) were determined under the same conditions as in FIG. 1B using the anti-HA antibody in immunoblotting. […]

Mfn2 = Mfn2 modification and degradation in A-T/LV shRNA cells treated with mitochondrial depolarizing agents; conditions: ISG15 overexpressing A-T cells, 24 hr
Experimental: Immunoblotting Analysis of Mitochondrial Proteins—Mitochondria were isolated from A-T/LV control and ISG15 shRNA cells using the Miochondrial Isolation Kit (Thermo Scientific Company, 89874). The Dounce homogenization protocol described by the manufacturer was used to isolate mitochondria from cells. Mitochondrial pellets were resuspended in lysis buffer containing 50 mM Tris pH 7.5 and 4% (v/v) SDS. Samples were homogenized and boiled for 10 min. Lysates containing equal protein were then mixed with 6× Laemmli SDS sample buffer (3× final concentration). Samples were boiled again and mitochondrial proteins were analyzed by SDS-PAGE. Immunoblotting analyses using either anti-ISG15 (raised against human ISG15) (20), anti-ubiquitin (gift from Dr. Arthur Haas, at LSUHSC—New Orleans), or anti-mitofusin 2 (Abcam, ab88569) antibodies were carried out using the ECL Western procedure (Pierce, 34076) and the BioRad VersaDoc Imaging System (BioRad). Immunoblotting Analysis of HA Polyubiquitylated Proteins in Cells: Cells were transfected with HA-ubiquitin using the PolyFect transfection reagent (Qiagen, 301105). Twenty four hours after transfection, mitochondria were isolated as described above. Mitochondrial lysis, SDS-PAGE, and immunoblotting analysis to detect HA-ubiquitin conjugated proteins using anti-HA antibodies were carried out as described above. Immunoblotting Analysis of Mfn2 in Cells: Cells were lysed in lysis buffer containing 50 mM Tris-HCl, pH 7.5, 2% SDS, and protease inhibitor cocktail. Lysates were sonicated, boiled, and cleared by centrifugation. Lysates containing equal protein were then mixed with 6× Laemmli SDS sample buffer (3× final concentration). Samples were boiled again and proteins were separated by 15% SDS-PAGE. Immunoblotting analysis was carried out using anti-Mfn2 antibodies (Abcam) as described above. Intensity of the Mfn2 bands was quantitated using BioRad Quantity One software. Statistical analysis—Statistical analysis was carried out using GraphPad software.
Many outer mitochondrial membrane (OMM) proteins are ubiquitylated and degraded via the 26S proteasome prior to mitophagy in cells treated with the mitochondrial depolarizing agents (28,29). To test whether ISG15 inhibits polyubiquitylation of OMM proteins, we assessed the fate of Mfn2, an OMM protein and proteasome substrate, in A-T/LV-control and A-T/LV-ISG15-silenced cells treated with two different mitochondrial depolarizing agents, valinomycin and carbonylcyanide m-chlorophenylhydrazone (CCCP). Consistent with the literature reports (29,35,36), we observed a ladder of high molecular weight anti-Mfn2 cross-reactive bands above the 86 kDa Mfn2 protein band that is reminiscent of polyubiquitylation, in both ISG15-silenced and ISG15 overexpressing A-T cells (FIGS. 34 A and B, left panels). The endogenous level of these high molecular weight Mfn2 cross-reactive bands was remarkably higher in ISG15-silenced as compared to the ISG15-overexpressing A-T cells in the absence of any drugs (FIGS. 34A and B, first panels, compare lanes 1 and 4). […] In contrast, the level of these Mfn2 cross-reactive high molecular weight bands decreased under the same drug treatment conditions in ISG15-silenced A-T cells (FIGS. 34A and B, first panels, lanes 4-6, and the accompanying bar graph in the second panel for quantitation). […] The bar graphs in FIGS. 34A and B, third panels, show mean values of the ratio between free Mfn2 (86 kDa band) and actin proteins (±SEM) in CCCP-treated A-T/LV-control and ISG15 shRNA cells measured from eight independent experiments, and valinomycin-treated A-T/LV-control and ISG15 shRNA cells measured from three independent experiments respectively.

**Q.** What does the source list for Cn1cnc(N)c2ncnc1-2 [3-MA, 3-Methyladenine]?
**A.** UV-induced degradation of HA-polyubiquitylated proteins ([1]; A-T/LV-ISG15 shRNA (ISG15-silenced) cells): induced degradation; UV-induced degradation of HA-polyubiquitylated proteins ([1]; A-T/LV-control shRNA cells): markedly blocked; yellow mean dots/cell (autophagolysosomes) ([2]; 3-MA-treated A-T/LV-control shRNA cells, untreated 3.8): 0.5 dots/cell; green mean dots/cell (autophagosomes) ([2]; 3-MA-treated A-T/LV-control shRNA cells, untreated 4.6): 0.16 dots/cell; autophagic activity ([2]; A-T/LV-ISG15 shRNA cells, 3-MA 10 nM 18 h, UV 25 mJ/m2): No apparent change; green dots and yellow dots ([2]; A-T/LV-control shRNA cells co-treated with 3-MA and UV): remained unaltered

**Q.** With C[C@@H]1C[C@@H]([C@H](O)CC2CC(=O)NC(=O)C2)C(=O)[C@@H](C)C1 [CHX, cycloheximide] as the compound, how does the “level of polyubiquitylated proteins reduced” value ([3]; CHX 10 μg/ml, within 6 hours) read?
**A.** more than 30%

**Q.** And the “cellular pool of Lys48-linked polyubiquitylated proteins reduced” value ([3]; CHX, within 3 hours)?
**A.** more than 70%

**Q.** CC(C)[C@@H]1NC(=O)[C@H](C)OC(=O)[C@@H](C(C)C)NC(=O)[C@@H](C(C)C)OC(=O)[C@H](C(C)C)NC(=O)[C@H](C)OC(=O)[C@@H](C(C)C)NC(=O)[C@@H](C(C)C)OC(=O)[C@H](C(C)C)NC(=O)[C@H](C)OC(=O)[C@@H](C(C)C)NC(=O)[C@@H](C(C)C)OC1=O [valinomycin] was tested. Which “free Mfn2 protein level” value (Mfn2) did it give?
**A.** slightly increased
